Experimental data reported in ChEMBL document CHEMBL5523736, “The First Discovery of Marine Polyoxygenated Cembranolides as Potential Agents for the Treatment of Ulcerative Colitis” (J Med Chem, 2024).
Each block holds one compound with its values, some of them ahead of it. Activity calls are given as the source filed them. No cut-off for these calls is given here.

What was measured:
RAW264.7 [1] = experiment: Antiinflammatory activity in mouse RAW264.7 cells assessed as inhibition of LPS-induced NO production incubated for 24 hrs; format: functional, cell-based; details: RAW264.7, 24 h
RAW264.7 [2] = experiment: Antiinflammatory activity in mouse RAW264.7 cells assessed as inhibition of LPS-induced NO production at 20 uM incubated for 24 hrs relative to control; format: functional
[3] = Cytotoxicity against mouse RAW264.7 cells assessed as cell viability at 20 uM incubated for 24 hrs by CCK8 assay relative to control; format: toxicity, cell-based; details: read-out: Activity
RAW264.7 [4] = experiment: Antiinflammatory activity in LPS-induced mouse RAW264.7 cells assessed as reduction in IL-1beta mRNA expression level at 20 uM by qRT-PCR analysis; format: functional, cell-based
RAW264.7 [5] = experiment: Antiinflammatory activity in LPS-induced mouse RAW264.7 cells assessed as reduction in IL-6 mRNA expression level at 20 uM by qRT-PCR analysis; format: functional, cell-based
RAW264.7 [6] = experiment: Antiinflammatory activity in LPS-induced mouse RAW264.7 cells assessed as reduction in TNF-alpha mRNA expression level at 20 uM by qRT-PCR analysis; format: functional, cell-based
RAW264.7 [7] = experiment: Antiinflammatory activity in LPS-induced mouse RAW264.7 cells assessed as reduction in iNOS mRNA expression level at 20 uM by qRT-PCR analysis; format: functional, cell-based
RAW264.7 [8] = experiment: Antiinflammatory activity in LPS-induced mouse RAW264.7 cells assessed as inhibition of IL-6 production at 20 uM by ELISA; format: functional, cell-based
RAW264.7 [9] = experiment: Antiinflammatory activity in LPS-induced mouse RAW264.7 cells assessed as inhibition of TNF-alpha production at 20 uM by ELISA; format: functional, cell-based
RAW264.7 [10] = experiment: Inhibition of NF-kappaB transcriptional activity in LPS-induced mouse RAW264.7 cells at 20 uM by luciferase based assay; format: cell-based
[11] = target: Transcription factor p65 (Mus musculus) (UniProt Q04207); experiment: Inhibition of p65 activation in LPS-induced mouse RAW264.7 cells at 20 uM by Western blot analysis; format: cell-based
Transcription factor p65 (Mus musculus), sequence (Q04207 whole entry): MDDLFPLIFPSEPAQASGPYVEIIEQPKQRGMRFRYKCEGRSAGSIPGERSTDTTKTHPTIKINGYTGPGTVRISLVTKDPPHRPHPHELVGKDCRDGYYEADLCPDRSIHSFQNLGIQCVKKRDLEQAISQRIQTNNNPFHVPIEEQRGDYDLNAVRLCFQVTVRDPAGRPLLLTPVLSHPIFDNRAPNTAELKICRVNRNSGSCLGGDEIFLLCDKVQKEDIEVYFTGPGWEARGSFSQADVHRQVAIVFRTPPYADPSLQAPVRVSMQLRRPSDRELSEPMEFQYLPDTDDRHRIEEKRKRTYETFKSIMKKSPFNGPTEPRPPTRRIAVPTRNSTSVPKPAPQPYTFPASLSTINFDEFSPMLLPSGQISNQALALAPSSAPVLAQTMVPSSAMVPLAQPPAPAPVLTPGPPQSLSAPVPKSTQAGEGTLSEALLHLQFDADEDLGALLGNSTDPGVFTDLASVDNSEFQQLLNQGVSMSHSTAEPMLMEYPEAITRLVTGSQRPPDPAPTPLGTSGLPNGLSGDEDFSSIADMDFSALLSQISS

RAW264.7 [12] = experiment: Inhibition of ERK phosphorylation in LPS-induced mouse RAW264.7 cells at 20 uM by Western blot analysis; format: cell-based
[13] = target: c-Jun N-terminal kinase (Mus musculus) (UniProt Q91Y86+Q9WTU6+Q61831); experiment: Inhibition of JNK phosphorylation in LPS-induced mouse RAW264.7 cells at 20 uM by Western blot analysis; format: cell-based
c-Jun N-terminal kinase (Mus musculus), sequence (Q61831 whole entry, looked up): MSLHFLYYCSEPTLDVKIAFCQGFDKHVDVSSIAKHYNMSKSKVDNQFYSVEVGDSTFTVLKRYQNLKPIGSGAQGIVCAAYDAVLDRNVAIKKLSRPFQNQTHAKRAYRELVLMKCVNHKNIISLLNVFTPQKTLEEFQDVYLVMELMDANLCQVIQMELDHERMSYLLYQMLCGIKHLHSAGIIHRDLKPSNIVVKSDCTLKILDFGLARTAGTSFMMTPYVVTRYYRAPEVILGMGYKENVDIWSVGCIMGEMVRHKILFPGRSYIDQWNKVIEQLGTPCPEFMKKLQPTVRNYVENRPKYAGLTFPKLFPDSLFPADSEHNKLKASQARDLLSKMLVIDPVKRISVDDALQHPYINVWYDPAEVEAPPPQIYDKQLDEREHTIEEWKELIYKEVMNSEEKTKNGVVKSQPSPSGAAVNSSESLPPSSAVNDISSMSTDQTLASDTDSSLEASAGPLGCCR
c-Jun N-terminal kinase (Mus musculus), sequence (Q91Y86 whole entry, looked up): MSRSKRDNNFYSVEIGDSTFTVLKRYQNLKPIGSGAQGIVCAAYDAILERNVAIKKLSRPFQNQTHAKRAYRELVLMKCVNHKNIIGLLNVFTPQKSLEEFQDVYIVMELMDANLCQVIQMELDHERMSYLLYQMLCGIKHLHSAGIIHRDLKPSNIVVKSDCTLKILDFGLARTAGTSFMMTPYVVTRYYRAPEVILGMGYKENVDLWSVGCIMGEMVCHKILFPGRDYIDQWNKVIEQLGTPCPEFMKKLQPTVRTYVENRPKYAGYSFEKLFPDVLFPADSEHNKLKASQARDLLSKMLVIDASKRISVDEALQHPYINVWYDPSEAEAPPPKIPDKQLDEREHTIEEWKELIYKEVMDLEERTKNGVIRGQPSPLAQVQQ
c-Jun N-terminal kinase (Mus musculus), sequence (Q9WTU6 whole entry, looked up): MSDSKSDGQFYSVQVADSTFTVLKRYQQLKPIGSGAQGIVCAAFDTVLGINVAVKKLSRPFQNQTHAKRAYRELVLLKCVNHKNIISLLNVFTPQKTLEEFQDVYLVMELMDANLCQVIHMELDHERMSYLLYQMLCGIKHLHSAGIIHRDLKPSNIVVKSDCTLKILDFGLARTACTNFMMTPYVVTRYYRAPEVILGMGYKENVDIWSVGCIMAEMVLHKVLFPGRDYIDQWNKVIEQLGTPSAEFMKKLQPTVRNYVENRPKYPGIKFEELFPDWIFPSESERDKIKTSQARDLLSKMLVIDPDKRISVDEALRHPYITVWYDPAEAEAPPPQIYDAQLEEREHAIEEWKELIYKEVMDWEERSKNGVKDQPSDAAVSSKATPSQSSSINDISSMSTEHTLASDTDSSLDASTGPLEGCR

RAW264.7 [14] = experiment: Inhibition of P38 phosphorylation in LPS-induced mouse RAW264.7 cells at 20 uM by Western blot analysis; format: cell-based
Mus musculus [15] = experiment: Effect on DSS-induced body weight loss in ulcerative colitis male C57BL/6J mouse model at 15 mg/kg, po administered for 8 days; format: functional, organism-based; details: time 8.0 day
Mus musculus [16] = experiment: Antiinflammatory activity against DSS-induced ulcerative colitis C57BL/6J mouse model assessed as reduction in DAI score at 15 mg/kg, po administered for 8 days; format: functional, organism-based; details: time 8.0 day
Mus musculus [17] = experiment: Antiinflammatory activity against DSS-induced ulcerative colitis C57BL/6J mouse model assessed as reduction in H and E histopathological score at 15 mg/kg, po administered for 8 days by H and E staining based analysis; format: functional, organism-based; details: time 8.0 day
Mus musculus [18] = experiment: Antiinflammatory activity against DSS-induced ulcerative colitis C57BL/6J mouse model assessed as reduction in intestinal epithelial destruction in colon at 15 mg/kg, po administered for 8 days by Hand E staining based histopathological analysis; format: functional, organism-based; details: time 8.0 day
Mus musculus [19] = experiment: Antiinflammatory activity against DSS-induced ulcerative colitis C57BL/6J mouse model assessed as reduction in inflammatory cell infiltration in colon at 15 mg/kg, po administered for 8 days by Hand E staining based histopathological analysis; format: functional, organism-based; details: time 8.0 day
Mus musculus [20] = experiment: Antiinflammatory activity against DSS-induced ulcerative colitis C57BL/6J mouse model assessed as reduction in goblet cell loss in colon at 15 mg/kg, po administered for 8 days by alcian blue staining based analysis; format: functional, organism-based; details: time 8.0 day
Mus musculus [21] = experiment: Antiinflammatory activity against DSS-induced ulcerative colitis C57BL/6J mouse model assessed as increase in […] protein level in colon at 15 mg/kg, po administered for 8 days by Western blot analysis; format: functional, organism-based; details: time 8.0 day
Mus musculus [22] = experiment: Antiinflammatory activity against DSS-induced ulcerative colitis C57BL/6J mouse model assessed as increase in CLAUDIN-1 protein level in colon at 15 mg/kg, po administered for 8 days by Western blot analysis; format: functional, organism-based; details: time 8.0 day
Mus musculus [23] = experiment: Antiinflammatory activity against DSS-induced ulcerative colitis C57BL/6J mouse model assessed as increase in OCCLUDIN protein level in colon at 15 mg/kg, po administered for 8 days by Western blot analysis; format: functional, organism-based; details: time 8.0 day
Mus musculus [24] = experiment: Antiinflammatory activity against DSS-induced ulcerative colitis C57BL/6J mouse model assessed as reduction in IL-1beta mRNA expression level in colon at 15 mg/kg, po administered for 8 days by qRT-PCR analysis; format: functional, organism-based; details: time 8.0 day
Mus musculus [25] = experiment: Antiinflammatory activity against DSS-induced ulcerative colitis C57BL/6J mouse model assessed as reduction in TNF-alpha mRNA expression level in colon at 15 mg/kg, po administered for 8 days by qRT-PCR analysis; format: functional, organism-based; details: time 8.0 day
Mus musculus [26] = experiment: Antiinflammatory activity against DSS-induced ulcerative colitis C57BL/6J mouse model assessed as reduction in iNOS mRNA expression level in colon at 15 mg/kg, po administered for 8 days by qRT-PCR analysis; format: functional, organism-based; details: time 8.0 day
Mus musculus [27] = experiment: Antiinflammatory activity against DSS-induced ulcerative colitis C57BL/6J mouse model assessed as reduction in Ccl2 mRNA expression level in colon at 15 mg/kg, po administered for 8 days by qRT-PCR analysis; format: functional, organism-based; details: time 8.0 day

- IC50 (RAW264.7 [1]): 31.7 µM
SMILES: CNC(=N)NCCC[C@H](N)C(=O)O [TILARGININE]
- inhibition at 20 µM (RAW264.7 [2]): 27.4%
- viability at 24 h, 20 µM [3]: 92.7%

SMILES: C=C1C(=O)O[C@]2(C)CC[C@@H]1C[C@H](O)[C@@]1(C)CC[C@H](O1)[C@](C)(O)CCC2=O
- inhibition at 20 µM (RAW264.7 [2]): 43%
- viability at 24 h, 20 µM [3]: 102%

SMILES: C=C1C(=O)O[C@]2(C)CC[C@@H]1C[C@@H]1O[C@@]1(C)C/C=C/[C@@](C)(OO)CCC2=O
- inhibition at 20 µM (RAW264.7 [2]): 48.7%
- viability at 24 h, 20 µM [3]: 93.7%

SMILES: C=C(C(=O)OC)[C@@H]1CC[C@@](C)(O)C(=O)CC[C@](C)(O)/C=C/C[C@]2(C)O[C@H]2C1
- inhibition at 20 µM (RAW264.7 [2]): 29.1%
- viability at 24 h, 20 µM [3]: 98.1%

SMILES: C=C(C(=O)OC)[C@@H]1CC[C@]2(C)O[C@@]2(O)CC/C(C)=C/CC[C@]2(C)O[C@@H]2C1
- inhibition at 20 µM (RAW264.7 [2]): 0%
- viability at 24 h, 20 µM [3]: 94%

SMILES: C=C1C(=O)O[C@]2(C)CC[C@@H]1C[C@H](O)[C@@]1(C)CC[C@H](O1)C(=C)CCC2=O
- inhibition at 20 µM (RAW264.7 [2]): 34%
- viability at 24 h, 20 µM [3]: 89.5%

- IC50 (RAW264.7 [1]): 1.98 µM
SMILES: C=C1C(=O)O[C@]2(C)CC[C@@H]1C[C@@H]1O[C@@]1(C)CC[C@H](O)[C@](C)(O)CCC2=O
- inhibition at 20 µM (RAW264.7 [2]): 90%
- viability at 24 h, 20 µM [3]: 89%
- Activity (RAW264.7 [4]): Active
- Activity (RAW264.7 [5]): Active
- Activity (RAW264.7 [6]): Active
- Activity (RAW264.7 [7]): Active

- IC50 (RAW264.7 [1]): 1.15 µM
- inhibition [11]: Active
- inhibition [13]: Active
SMILES: C=C1C(=O)O[C@]2(C)CC[C@@H]1C[C@@H]1O[C@@]1(C)CC/C=C(\C)CC[C@H]2OC(C)=O
- inhibition at 20 µM (RAW264.7 [2]): 139%
- viability at 24 h, 20 µM [3]: 89%
- Activity (RAW264.7 [4]): Active
- Activity (RAW264.7 [5]): Active
- Activity (RAW264.7 [6]): Active
- Activity (RAW264.7 [7]): Active
- Activity (RAW264.7 [8]): Active
- Activity (RAW264.7 [9]): Active
- inhibition (RAW264.7 [10]): Active
- inhibition (RAW264.7 [12]): Active
- inhibition (RAW264.7 [14]): inactive
- Activity (Mus musculus [15]): inactive
- Activity (Mus musculus [16]): Active
- Activity (Mus musculus [17]): Active
- Activity (Mus musculus [18]): Active
- Activity (Mus musculus [19]): Active
- Activity (Mus musculus [20]): Active
- Activity (Mus musculus [21]): Active
- Activity (Mus musculus [22]): Active
- Activity (Mus musculus [23]): Active
- Activity (Mus musculus [24]): Active
- Activity (Mus musculus [25]): Active
- Activity (Mus musculus [26]): Active
- Activity (Mus musculus [27]): Active

SMILES: C=C(C(=O)OC)[C@@H]1CC[C@@]2(C)O[C@@H]2CC[C@](C)(O)/C=C/C[C@]2(C)O[C@H]2C1
- inhibition at 20 µM (RAW264.7 [2]): 31.1%
- viability at 24 h, 20 µM [3]: 108%

SMILES: C=C1C(=O)O[C@]2(C)CC[C@@H]1C[C@H](O)[C@@]1(C)CC[C@H](O1)C(=C)CC[C@H]2O
- inhibition at 20 µM (RAW264.7 [2]): 39%
- viability at 24 h, 20 µM [3]: 89%

SMILES: C=C1C(=O)O[C@]2(C)CC[C@@H]1C[C@H]1O[C@@]1(C)C/C=C/[C@](C)(OO)CC[C@H]2O
- IC50 (RAW264.7 [1]): 0.84 µM
- inhibition at 20 µM (RAW264.7 [2]): 124%
- viability at 24 h, 20 µM [3]: 108%
- Activity (RAW264.7 [4]): Active
- Activity (RAW264.7 [5]): Active
- Activity (RAW264.7 [6]): Active
- Activity (RAW264.7 [7]): Active

SMILES: C=C1C(=O)O[C@]2(C)CC[C@@H]1C[C@H](O)[C@@]1(C)CC/C=C(/CCC2=O)COO1
- inhibition at 20 µM (RAW264.7 [2]): 34.4%
- viability at 24 h, 20 µM [3]: 94.5%

SMILES: C=C1C(=O)O[C@]2(C)CC[C@@H]1C[C@H](O)[C@@]1(C)CC[C@H](O1)C(=C)CC[C@H]2OC(C)=O [GRANOSOLIDE A]
- inhibition at 20 µM (RAW264.7 [2]): 31%
- viability at 24 h, 20 µM [3]: 88.7%

SMILES: C=C(C(=O)OC)[C@@H]1C/C=C(/C)[C@@H](O)CC/C(C)=C/CC[C@]2(C)O[C@H]2C1
- inhibition at 20 µM (RAW264.7 [2]): 79.3%
- viability at 24 h, 20 µM [3]: 93.7%

- IC50 (RAW264.7 [1]): 12.7 µM
SMILES: C=C1C(=O)O[C@]2(C)CC[C@@H]1C/C=C(\C)CC/C=C(\C)CC[C@@H]2O
- inhibition at 20 µM (RAW264.7 [2]): 93.1%
- viability at 24 h, 20 µM [3]: 93.7%
